Patent US20240100104A1, “METHODS AND COMPOSITION FOR THE TREATMENT OF AUTISM SPECTRUM DISORDER” (The General Hospital Corporation, priority 2020, published 2024)

Experiments:
[1] = 32 IU per day, patients age 3-8 years old; cited from earlier work
patients with ASD = test: Clinical Global Impression-Improvement (CGI-I); format: in vivo, human; details: vs control group; P<0.05 only for combination
Description: FIG. 2. Proportion of subjects displaying improvement in CGI-I overtime among all subjects within a treatment condition.
Clinical Global Impression (CGI) was assessed to evaluate ASD symptoms and the relative extent of improvement in symptoms at each visiting time. […] The waterfall data of CGI score reduction in each group is shown in supplement FIG. 6.
This clinical trial is a randomized, double-blind, and placebo-controlled study in accordance with the Consolidated Standards of Reporting Trials (CONSORT) guidelines. Subjects were randomized to two groups with 1:1 ratio into this two-stage study. To achieve a statistical power of 80% for primary outcomes with a large effect size of 0.8 (Cohen's d) assumed, a total of 60 participants (30 in each arm) were required. However, as we are primarily interested in studying the preliminary effects of the proposed treatment, we enrolled and randomized 35 subjects who were included in the data analysis. In stage 1, the probiotics group received oral probiotics PS128 while the placebo group received oral placebo for 16 weeks. In stage 2, both groups continued their respective administration and simultaneously added intranasal oxytocin spray. The treatment proceeded for a total of 28 weeks with 3 visits for outcomes measurement at 0, 16 weeks, and 28 weeks (V1, V2, and V3, respectively). […]

mouse models of ASD = details: two mouse models of ASD; cited from earlier work

In the case of `CC[C@H](C)[C@@H]1NC(=O)[C@H](Cc2ccc(O)cc2)NC(=O)[C@@H](N)CSSC[C@@H](C(=O)N2CCC[C@H]2C(=O)N[C@@H](CC(C)C)C(=O)NCC(N)=O)NC(=O)[C@H](CC(N)=O)NC(=O)[C@H](CCC(N)=O)NC1=O` [OXT, Oxytocin], the safety of dosage [1] is given as “safe and adequate”, the “proportion of subjects showing improvement in CGI-I (CGI-I≤3)” value (patients with ASD) is given as “non-significant, though a trend of improvement” and the effect on sociability (mouse models of ASD) is given as “enhanced sociability”.
